Test results from ChEMBL document CHEMBL5143707, “Benzodiazepine Derivatives as Potent Vasopressin V2 Receptor Antagonists for the Treatment of Autosomal Dominant Kidney Disease” (J Med Chem, 2022).

What was measured:
in vivo [1] = settings: C57BL/6, mouse, kidney, sc, 5 mg/kg
in vivo [2] = settings: C57BL/6, mouse, kidney, sc, 5 mg/kg; remark: listed apart in the source

concentration at 0.5 h (in vivo [1]): 6100 ng/g
concentration at 1 h (in vivo [2]): 3900 ng/g
SMILES: Cc1ccccc1C(=O)Nc1ccc(C(=O)N2CCCC(O)c3cc(Cl)ccc32)c(C)c1 (configuration not stated) [TOLVAPTAN]
